The format of series [1] is physicochemical. The following applies: lipoxidase treatment at 37° C., hexane:ethyl ether extraction, HPLC.
For series [2] the following is noted: cited from earlier work.
The conditions of series [3]: cited from earlier work. This is another data set of the same source.
For series [4] the following is noted: cited from earlier work. The source holds these as a separate data set.

Converted amounts (≈) assume the structure as drawn. Like-named read-outs stand apart in the source and are kept apart here.

For `CC1=C[C@H](O)CC(C)(C)[C@H]1/C=C/C(C)=C/C=C/C(C)=C/C=C/C=C(C)/C=C/C=C(C)/C=C/C1=C(C)C[C@@H](O)CC1(C)C` [Lutein, 3,3′-dihydroxy-alpha-carotene], the “initial lutein recovered after enzyme treatment” value in series [1] is recorded as “Approximately 88%”. Also, the figures for the Solubility in series [2] (Ethyl acetate) and in series [2] (Methyl tert butyl ether) were 0.8 mg/mL (≈ 1410 µM) and 2 mg/mL (≈ 3520 µM), respectively. Further, in series [2] (nonpolar and polar solvents), the “Solubility in nonpolar and polar solvents” value was “soluble in both nonpolar and polar solvents”. Further, the Solubility in water entry in series [2] (water) is listed as “Insoluble”. Also, the Stability entry was “Unstable to light and oxygen;” in series [3] (light and oxygen); “Stable if stored at −20 °C under a nitrogen” in series [3] (stored at −20° C. under a nitrogen atmosphere).
Take aflatoxin B1 [AFB1]: in series [4], the “Lipid and water solubility” value is “both lipid and water soluble”.

The record behind these values is US7671242B2 (priority 2005, dated 2010).
